This is an account of results in patent US12252701B2, “Chimeric antigen receptor T cell therapy” (KITE PHARMA, INC., priority 2020, dated 2025).

One data set deals with JAK2 (Homo sapiens, UniProt O60674). Nature of the data set: JAK kinase inhibition biochemical assay (Kinase-Glo Plus luminescence), JAK2. The conditions noted are these: 10 μM ATP. How it is done:
(§1) JAK kinase inhibition in vitro biochemical assays were performed using Kinase-Glo Plus luminescence kinase assay kit (Promega). Kinase activity was measured by quantitating the amount of ATP remaining in solution following a kinase reaction. Luminescent signal from the assay was correlated with the amount of ATP present and was inversely correlated with the amount of kinase activity. Compounds were diluted in 10% DMSO and 5 μl of the dilution were added to a 50 μl reaction so that the final concentration of DMSO was 1% in all of the reactions. […] All enzymatic reactions were conducted at 30° C. for 45 minutes. […] After the enzymatic reaction, 50 μl of Kinase-Glo Plus Luminescence kinase assay solution (Promega) were added to each reaction and incubated in the plate for 15 minutes at room temperature. Luminescence signal was measured using a Bio-Tek Synergy 2 microplate reader. Kinase activity was performed in duplicate at each concentration and data were analyzed using Graphpad Prism. The difference between luminescence intensities in the absence of Kinase (Lut) and in the presence of Kinase (Luc) was defined as 100% activity (Lut−Luc). Using luminescence signal (Lu) in the presence of the compound, % activity was calculated as: % activity={Lut−Lu)/(Lut−Luc)}×100%, where Lu=the luminescence intensity in the presence of compound.
A general note: Kinase-Glo measures the ATP left after a reaction by luminescence.

The test system of data set [1] is NALM6.GFP.LUC.CD19 target cells.
For data set [2], the system named is monocyte-derived macrophages. Kind of data set: Macrophage differentiation and M1/M2 polarization (surface markers by flow cytometry). Type of data set: cell-based, human. The conditions noted are these: for CD209 surface expression in M2 polarized macrophage cultures: compared to normal M2 polarization culture conditions; for skewing of macrophage phenotype amidst M2 polarizing conditions (M1 markers CD38 and HLA-DR): separate experiment. How it is done: Monocytes were prepared from healthy donor PBMCs by negative selection for CD14+ monocytes using MACS (these cryopreserved monocytes provided by […], Alameda, CA) at >95% purity. Monocytes were differentiated into macrophages (M0) using traditional methods. In brief, 1×10^6 monocytes were plated into 12-well plate wells in a total volume of 2 mL macrophage culture media (MCM) (ImmunoCult™-SF Macrophage medium, Stem Cell Technologies) containing 50 ng/ml M-CSF and cultured for 6 days at 37° C./5% CO2. On day 2 of differentiation, cultures were replenished with fresh media and M-CSF. On day 6, a portion of the wells containing differentiated macrophages were replenished with 2 ml of fresh MCM containing 50 ng/ml M-CSF, 100 ng/ml LPS, 20 ng/ml IFNg and cultured for another 48 hours to polarize the macrophage to an M1 macrophage phenotype. Also on day 6, another portion of the wells containing differentiated macrophages were replenished with 2 ml of fresh R10 containing 50 ng/ml M-CSF and 20 ng/ml IL-4 and cultured for another 48 hours to polarize the macrophages to M2 macrophage phenotype. On day 8, all putative polarized macrophages were assessed for M1 and M2-specific surface markers using relevant M1/M2 immunophenotyping panels and flow cytometry. The cell surface markers used to assess monocytes, M0, M1 and M2 macrophage phenotypes included CD14, CD32, CD38, CD80, CD86, CD68, CD163, CD200R1, CD204, CD206, CD209, and HLA-DR.
A general note: A flow cytometer gives signals particle by particle.

In another data set the target is T1, JAK3 (Homo sapiens, UniProt P52333).
T1 sequence (P52333 1-1124): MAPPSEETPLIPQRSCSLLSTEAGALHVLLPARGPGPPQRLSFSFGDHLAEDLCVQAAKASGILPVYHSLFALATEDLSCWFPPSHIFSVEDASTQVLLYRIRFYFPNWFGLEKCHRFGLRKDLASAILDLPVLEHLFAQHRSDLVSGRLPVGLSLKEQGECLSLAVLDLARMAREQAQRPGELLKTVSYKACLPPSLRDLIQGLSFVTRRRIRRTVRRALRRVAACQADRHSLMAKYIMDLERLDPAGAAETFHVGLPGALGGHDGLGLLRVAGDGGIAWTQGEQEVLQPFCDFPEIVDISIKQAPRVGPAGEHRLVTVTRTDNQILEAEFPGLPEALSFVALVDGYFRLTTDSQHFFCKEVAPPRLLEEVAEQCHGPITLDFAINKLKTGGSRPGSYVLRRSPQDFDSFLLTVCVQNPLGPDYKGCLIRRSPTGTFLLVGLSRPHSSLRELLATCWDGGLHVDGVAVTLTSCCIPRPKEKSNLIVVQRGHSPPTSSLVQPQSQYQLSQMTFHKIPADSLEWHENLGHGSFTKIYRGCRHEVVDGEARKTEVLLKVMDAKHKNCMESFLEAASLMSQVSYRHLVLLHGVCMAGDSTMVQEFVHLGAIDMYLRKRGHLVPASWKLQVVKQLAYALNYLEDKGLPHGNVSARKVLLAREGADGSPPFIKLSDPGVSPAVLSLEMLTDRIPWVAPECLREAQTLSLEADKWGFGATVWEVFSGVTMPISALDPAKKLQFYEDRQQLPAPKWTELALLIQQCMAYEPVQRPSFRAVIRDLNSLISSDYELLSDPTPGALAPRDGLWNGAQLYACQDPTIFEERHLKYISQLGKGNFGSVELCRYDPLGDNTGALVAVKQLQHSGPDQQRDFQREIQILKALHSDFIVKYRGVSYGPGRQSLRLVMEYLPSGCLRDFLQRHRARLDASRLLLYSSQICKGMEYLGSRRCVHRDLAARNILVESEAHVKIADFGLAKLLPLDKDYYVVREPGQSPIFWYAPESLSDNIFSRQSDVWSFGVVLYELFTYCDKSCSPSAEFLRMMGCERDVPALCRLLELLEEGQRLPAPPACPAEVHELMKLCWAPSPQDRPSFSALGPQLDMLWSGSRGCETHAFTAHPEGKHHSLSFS
Kind of data set: JAK kinase inhibition biochemical assay (Kinase-Glo Plus luminescence), JAK3. On the procedure: as §1

Another data set concerns macrophage. Nature of the data set: Macrophage polarization, M1/M2 phenotypic markers by flow cytometry. Type of data set: cell-based.

Each structure is given as a SMILES string.

Sequence of JAK2 (O60674 whole entry): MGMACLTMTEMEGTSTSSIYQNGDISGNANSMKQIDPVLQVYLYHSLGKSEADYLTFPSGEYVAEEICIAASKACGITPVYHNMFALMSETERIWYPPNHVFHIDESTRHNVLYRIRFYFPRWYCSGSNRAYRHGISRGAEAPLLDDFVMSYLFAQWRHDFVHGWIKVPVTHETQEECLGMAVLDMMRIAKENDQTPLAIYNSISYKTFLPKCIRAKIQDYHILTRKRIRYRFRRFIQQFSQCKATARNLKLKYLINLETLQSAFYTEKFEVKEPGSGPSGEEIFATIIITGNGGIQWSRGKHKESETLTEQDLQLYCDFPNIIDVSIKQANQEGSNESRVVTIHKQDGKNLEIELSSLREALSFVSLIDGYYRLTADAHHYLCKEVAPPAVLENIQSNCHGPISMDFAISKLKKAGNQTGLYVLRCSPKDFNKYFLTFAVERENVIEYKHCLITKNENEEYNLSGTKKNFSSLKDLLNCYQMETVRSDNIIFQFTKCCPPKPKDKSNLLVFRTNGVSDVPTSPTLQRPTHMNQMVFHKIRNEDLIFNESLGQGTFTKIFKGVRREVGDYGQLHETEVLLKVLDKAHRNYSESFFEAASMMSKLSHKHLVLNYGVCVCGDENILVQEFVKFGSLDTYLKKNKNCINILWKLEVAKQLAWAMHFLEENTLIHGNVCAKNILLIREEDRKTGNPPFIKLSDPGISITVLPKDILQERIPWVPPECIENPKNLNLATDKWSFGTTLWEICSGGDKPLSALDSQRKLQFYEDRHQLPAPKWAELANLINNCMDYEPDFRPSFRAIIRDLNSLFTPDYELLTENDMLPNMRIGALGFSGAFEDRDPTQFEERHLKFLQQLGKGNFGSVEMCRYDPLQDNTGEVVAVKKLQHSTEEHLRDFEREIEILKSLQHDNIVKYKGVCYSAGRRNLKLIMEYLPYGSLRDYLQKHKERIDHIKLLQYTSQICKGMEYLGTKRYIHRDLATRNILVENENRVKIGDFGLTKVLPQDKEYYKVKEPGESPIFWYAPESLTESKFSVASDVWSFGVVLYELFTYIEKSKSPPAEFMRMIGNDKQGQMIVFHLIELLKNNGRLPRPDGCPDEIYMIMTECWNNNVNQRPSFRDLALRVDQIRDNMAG

A word on the IC50: it is the concentration at which inhibition is half-maximal. On to `Nc1nc2cccc(-c3ccc(CN4CCS(=O)(=O)CC4)cc3)n2n1` [GS-829845], for which the IC50 at JAK2 is 2160 nM.

For the molecule `C[C@@H]1C[C@H]2[C@@H]3CCC4=CC(=O)C=C[C@]4(C)[C@@]3(F)[C@@H](O)C[C@]2(C)[C@@]1(O)C(=O)CO` [dexamethasone], the “impact on CAR-T serial killing (percent cytotoxicity)” value in data set [1] was “differential impacts”.

With `C[C@@H]1CCN(C(=O)CC#N)C[C@@H]1N(C)c1ncnc2[nH]ccc12` [tofacitinib], the “CD209 surface expression in M2 polarized macrophage cultures” value in data set [2] (10 μM) is recorded as “No reduction”. For the same molecule, the “skewing of macrophage phenotype amidst M2 polarizing conditions (M1 markers CD38 and HLA-DR)” value in data set [2] was “skewed macrophages away from M2 towards M1 phenotype”.

Regarding `N#CCC1(n2cc(-c3ncnc4[nH]ccc34)cn2)CN(C2CCN(C(=O)c3ccnc(C(F)(F)F)c3F)CC2)C1` [itacitinib], the IC50 at JAK2 was found to be 69 nM; at JAK3 (10 μM ATP) it was 921 nM.

For the molecule `O=C(Nc1nc2cccc(-c3ccc(CN4CCS(=O)(=O)CC4)cc3)n2n1)C1CC1` [filgotinib], the macrophage polarization result with macrophage was “promotes polarization of macrophages from M2 to M1 macrophages”. The “activity against JAK3” value at JAK3 (biochemical assay) is recorded as “limited activity”. For the same molecule, the “inhibition of an M2 polarized phenotype” value in data set [2] (10 μM, compared to no drug/normal M2 polarization culture conditions) is given as “stronger inhibition of an M2 polarized phenotype than Tofacitinib”. The “CD209 surface expression in M2 polarized macrophage cultures” value in data set [2] (10 μM) is reported as “No reduction”. Moreover, in data set [2] (10 μM, during 6-day differentiation versus only during M2 polarization), the “influence on inhibiting M2 polarization by period of use” value is on record as “stronger influence on inhibiting M2 polarization when used during the 6-day macrophage differentiation”. Further, the “inhibiting the formation of an M2 polarized phenotype” value in data set [2] (10 μM, used during both macrophage differentiation and M2 polarization) is on record as “even stronger”. In addition, in data set [2], the “skewing of macrophage phenotype amidst M2 polarizing conditions (M1 markers CD38 and HLA-DR)” value is on record as “skewed macrophages away from M2 towards M1 phenotype”.
